Experimental data published in ChEMBL document CHEMBL1201862, “PubChem BioAssay data set” (2004).
Each block holds one molecule with its values, some of them ahead of it. Activity calls are given as the source filed them.

Tests used:
[1] = target: Peroxisome proliferator-activated receptor gamma/Nuclear receptor coactivator 2 (Homo sapiens, UniProt P37231); assay: (§1) TR-FRET dose response biochemical High Throughput Screening assay for agonists of the steroid receptor coactivator 2 (SRC-2) recruitment by the peroxisome proliferator-activated receptor gamma (PPAR gamma): non-selective agonists. [Related pubchem assays: 1297, 1032 ]; assay type: functional
Peroxisome proliferator-activated receptor gamma/Nuclear receptor coactivator 2, sequence (P37231 whole entry): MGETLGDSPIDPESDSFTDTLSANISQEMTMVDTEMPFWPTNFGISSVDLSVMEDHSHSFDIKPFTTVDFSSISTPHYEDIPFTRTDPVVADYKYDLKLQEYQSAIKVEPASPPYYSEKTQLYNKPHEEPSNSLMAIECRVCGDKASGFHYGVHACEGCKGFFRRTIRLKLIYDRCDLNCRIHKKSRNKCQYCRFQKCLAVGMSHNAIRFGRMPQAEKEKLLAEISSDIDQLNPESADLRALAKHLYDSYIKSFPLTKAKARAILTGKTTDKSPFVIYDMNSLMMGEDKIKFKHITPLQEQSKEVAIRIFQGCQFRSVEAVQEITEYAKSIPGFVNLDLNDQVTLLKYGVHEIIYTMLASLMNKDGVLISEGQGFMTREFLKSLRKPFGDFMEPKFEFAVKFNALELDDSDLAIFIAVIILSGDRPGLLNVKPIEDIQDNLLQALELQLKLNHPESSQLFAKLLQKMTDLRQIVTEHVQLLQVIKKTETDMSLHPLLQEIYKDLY
Peroxisome proliferator-activated receptor gamma/Nuclear receptor coactivator 2, sequence (Q15596 whole entry, further chain): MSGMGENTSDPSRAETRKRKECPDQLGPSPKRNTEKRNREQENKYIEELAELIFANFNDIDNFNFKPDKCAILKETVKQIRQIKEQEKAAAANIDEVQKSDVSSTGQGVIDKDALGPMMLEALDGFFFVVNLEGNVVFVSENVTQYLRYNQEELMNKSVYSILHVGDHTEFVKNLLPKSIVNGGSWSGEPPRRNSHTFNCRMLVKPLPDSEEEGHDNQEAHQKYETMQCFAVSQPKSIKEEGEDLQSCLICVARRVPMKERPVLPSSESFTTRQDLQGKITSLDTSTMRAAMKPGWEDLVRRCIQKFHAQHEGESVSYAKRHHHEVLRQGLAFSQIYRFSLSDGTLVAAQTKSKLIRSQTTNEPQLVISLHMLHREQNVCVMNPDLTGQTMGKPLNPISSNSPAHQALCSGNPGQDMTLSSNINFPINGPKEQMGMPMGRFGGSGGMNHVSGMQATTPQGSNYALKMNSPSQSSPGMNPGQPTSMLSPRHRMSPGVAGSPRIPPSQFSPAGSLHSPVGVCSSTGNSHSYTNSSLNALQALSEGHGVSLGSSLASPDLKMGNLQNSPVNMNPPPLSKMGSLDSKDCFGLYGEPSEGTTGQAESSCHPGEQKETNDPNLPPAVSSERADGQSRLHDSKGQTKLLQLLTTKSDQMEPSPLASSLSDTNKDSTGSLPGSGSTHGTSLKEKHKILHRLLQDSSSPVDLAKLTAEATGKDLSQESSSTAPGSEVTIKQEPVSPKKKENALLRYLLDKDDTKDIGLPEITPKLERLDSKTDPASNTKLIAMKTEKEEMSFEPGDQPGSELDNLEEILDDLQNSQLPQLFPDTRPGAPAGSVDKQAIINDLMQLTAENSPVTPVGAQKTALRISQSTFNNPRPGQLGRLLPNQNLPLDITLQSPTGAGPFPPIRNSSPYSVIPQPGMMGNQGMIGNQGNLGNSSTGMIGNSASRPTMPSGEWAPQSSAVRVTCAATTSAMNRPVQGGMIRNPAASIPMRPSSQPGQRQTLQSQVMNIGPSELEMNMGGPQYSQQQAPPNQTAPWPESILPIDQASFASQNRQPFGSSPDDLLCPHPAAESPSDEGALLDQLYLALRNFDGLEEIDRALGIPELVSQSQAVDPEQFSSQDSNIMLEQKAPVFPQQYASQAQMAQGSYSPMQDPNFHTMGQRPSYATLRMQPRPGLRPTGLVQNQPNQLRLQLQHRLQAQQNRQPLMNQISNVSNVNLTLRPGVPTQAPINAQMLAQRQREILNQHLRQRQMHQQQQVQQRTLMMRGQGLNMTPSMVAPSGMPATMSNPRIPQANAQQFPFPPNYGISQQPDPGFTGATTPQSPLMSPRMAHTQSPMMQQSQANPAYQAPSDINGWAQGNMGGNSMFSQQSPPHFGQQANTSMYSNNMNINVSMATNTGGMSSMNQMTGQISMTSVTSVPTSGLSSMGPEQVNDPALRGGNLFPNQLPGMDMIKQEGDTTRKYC

[2] = target: T1, Zinc finger protein mex-5 (Caenorhabditis elegans, UniProt Q9XUB2); assay: MEX-5/TCR-2 RNA interaction inhibitors, dose response, biochemical, C. elegans, fluorescence polarization (AID 1960)
T1 sequence (Q9XUB2 whole entry): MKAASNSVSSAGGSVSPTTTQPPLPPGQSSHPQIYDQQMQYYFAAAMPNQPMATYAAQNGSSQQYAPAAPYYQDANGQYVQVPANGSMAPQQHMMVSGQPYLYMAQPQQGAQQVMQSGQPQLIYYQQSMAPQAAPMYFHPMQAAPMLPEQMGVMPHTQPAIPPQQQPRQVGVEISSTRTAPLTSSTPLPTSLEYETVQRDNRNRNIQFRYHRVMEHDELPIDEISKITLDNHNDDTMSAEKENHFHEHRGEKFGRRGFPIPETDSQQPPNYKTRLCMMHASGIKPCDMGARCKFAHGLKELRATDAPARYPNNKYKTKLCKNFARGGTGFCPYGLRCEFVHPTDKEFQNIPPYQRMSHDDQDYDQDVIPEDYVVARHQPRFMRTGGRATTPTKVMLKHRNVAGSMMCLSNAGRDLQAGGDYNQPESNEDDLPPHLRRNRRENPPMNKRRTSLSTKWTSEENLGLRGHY

[3] = target: Peroxisome proliferator-activated receptor gamma/Nuclear receptor coactivator 1 (Homo sapiens, UniProt P37231); assay: as §1, with “1 (SRC-1)” for “2 (SRC-2)”, “assays (depositor defined):AID1300, AID1808, AID504735, AID631]” for “assays: 1297, 1032 ]”; assay type: protein assay
Peroxisome proliferator-activated receptor gamma/Nuclear receptor coactivator 1, sequence (P37231 whole entry, the tested form may be a part): as the sequence (P37231 whole entry) above
Peroxisome proliferator-activated receptor gamma/Nuclear receptor coactivator 1, sequence (Q15788 whole entry, further chain, the tested form may be a part): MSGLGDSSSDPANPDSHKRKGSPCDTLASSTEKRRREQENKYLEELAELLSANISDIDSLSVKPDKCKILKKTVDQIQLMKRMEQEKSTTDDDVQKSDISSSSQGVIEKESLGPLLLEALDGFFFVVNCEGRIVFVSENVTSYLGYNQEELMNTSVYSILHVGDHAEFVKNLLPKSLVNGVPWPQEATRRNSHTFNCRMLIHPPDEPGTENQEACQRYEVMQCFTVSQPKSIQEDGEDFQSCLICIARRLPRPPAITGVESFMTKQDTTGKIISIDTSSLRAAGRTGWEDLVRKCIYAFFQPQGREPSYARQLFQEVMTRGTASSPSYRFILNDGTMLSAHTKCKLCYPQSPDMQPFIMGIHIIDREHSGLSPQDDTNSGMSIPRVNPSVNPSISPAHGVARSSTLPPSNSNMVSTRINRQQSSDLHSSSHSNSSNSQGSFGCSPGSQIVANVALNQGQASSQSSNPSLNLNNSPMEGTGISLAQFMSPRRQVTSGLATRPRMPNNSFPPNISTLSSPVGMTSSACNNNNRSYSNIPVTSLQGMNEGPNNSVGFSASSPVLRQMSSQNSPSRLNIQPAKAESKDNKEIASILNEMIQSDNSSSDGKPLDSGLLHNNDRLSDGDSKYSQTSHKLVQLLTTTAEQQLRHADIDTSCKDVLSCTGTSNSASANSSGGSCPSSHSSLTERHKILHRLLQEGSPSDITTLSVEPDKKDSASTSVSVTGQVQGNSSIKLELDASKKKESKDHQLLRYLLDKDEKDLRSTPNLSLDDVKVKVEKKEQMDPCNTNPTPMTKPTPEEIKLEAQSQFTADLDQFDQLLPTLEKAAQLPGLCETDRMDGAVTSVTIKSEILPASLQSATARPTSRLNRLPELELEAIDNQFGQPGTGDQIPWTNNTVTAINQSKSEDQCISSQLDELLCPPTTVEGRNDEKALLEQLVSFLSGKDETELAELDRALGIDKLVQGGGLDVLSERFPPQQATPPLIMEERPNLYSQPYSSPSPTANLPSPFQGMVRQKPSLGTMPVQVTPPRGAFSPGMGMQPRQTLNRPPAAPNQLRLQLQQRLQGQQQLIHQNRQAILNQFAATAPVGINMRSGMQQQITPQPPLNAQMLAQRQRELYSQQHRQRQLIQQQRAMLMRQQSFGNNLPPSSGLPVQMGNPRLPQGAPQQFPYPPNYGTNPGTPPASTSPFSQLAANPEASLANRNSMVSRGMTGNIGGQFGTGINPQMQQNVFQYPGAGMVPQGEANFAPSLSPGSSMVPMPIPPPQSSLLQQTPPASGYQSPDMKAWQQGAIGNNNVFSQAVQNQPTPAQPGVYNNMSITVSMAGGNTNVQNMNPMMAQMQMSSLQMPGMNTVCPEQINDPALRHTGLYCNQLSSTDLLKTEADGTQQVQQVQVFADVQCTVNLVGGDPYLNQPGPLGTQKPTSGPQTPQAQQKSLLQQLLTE

[4] = target: T2, RNA-binding protein pos-1 (Caenorhabditis elegans, UniProt G5EF15); assay: inhibitors of POS-1/mex-3 RNA binding, dose response, biochemical, fluorescence polarization (AID 1964);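 further: purified POS-1 fused to maltose binding protein made in E. coli; potency of compounds blocking POS-1 binding to fluorescent RNA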
T2 sequence (G5EF15 whole entry): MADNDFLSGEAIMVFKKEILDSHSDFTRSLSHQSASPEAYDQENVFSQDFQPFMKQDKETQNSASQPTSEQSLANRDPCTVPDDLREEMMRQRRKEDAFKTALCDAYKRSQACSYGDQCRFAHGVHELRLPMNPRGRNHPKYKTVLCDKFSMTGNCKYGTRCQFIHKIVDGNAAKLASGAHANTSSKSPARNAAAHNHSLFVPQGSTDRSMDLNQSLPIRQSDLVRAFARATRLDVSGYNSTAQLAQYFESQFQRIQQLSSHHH

[5] = target: Peroxisome proliferator-activated receptor gamma/Nuclear receptor coactivator 3 (Homo sapiens, UniProt P37231); assay: as §1, with “3 (SRC-3)” for “2 (SRC-2)”, “1301 (Confirmation screen.), 1048 (Primary screen.)]” for “1297, 1032 ]”; assay type: functional
[6] = target: 72 kDa type IV collagenase (Homo sapiens, UniProt P08253); assay: Dose Response validation of uHTS RPN11 inhibitor hits using a MMP-2 Fluorescence assay.; assay type: functional
72 kDa type IV collagenase, sequence (P08253 whole entry): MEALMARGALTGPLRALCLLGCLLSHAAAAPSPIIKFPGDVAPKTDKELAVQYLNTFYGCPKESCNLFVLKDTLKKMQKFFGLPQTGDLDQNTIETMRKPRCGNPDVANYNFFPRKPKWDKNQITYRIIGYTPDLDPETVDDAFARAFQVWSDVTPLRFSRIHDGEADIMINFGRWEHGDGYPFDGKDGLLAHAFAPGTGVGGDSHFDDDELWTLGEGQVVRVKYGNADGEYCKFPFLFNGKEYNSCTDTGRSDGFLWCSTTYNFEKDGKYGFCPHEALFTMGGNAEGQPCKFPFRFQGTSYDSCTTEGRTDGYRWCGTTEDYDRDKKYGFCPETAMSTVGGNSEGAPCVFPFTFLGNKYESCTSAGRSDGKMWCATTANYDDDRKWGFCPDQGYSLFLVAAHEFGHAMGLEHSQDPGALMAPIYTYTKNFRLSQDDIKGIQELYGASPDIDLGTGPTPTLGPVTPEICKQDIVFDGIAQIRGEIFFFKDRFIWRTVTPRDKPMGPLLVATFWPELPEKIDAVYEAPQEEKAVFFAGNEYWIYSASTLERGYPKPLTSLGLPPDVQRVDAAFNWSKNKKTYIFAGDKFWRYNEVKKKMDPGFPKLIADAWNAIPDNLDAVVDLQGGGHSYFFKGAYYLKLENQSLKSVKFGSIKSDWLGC

[7] = target: 26S proteasome non-ATPase regulatory subunit 14 (Homo sapiens, UniProt O00487); assay: inhibition of proteasome subunit RPN11 – biochemical, fluorescence polarization, uHTS hits, confirmation (AID 602368); assay type: functional
[8] = target: Prothrombin (Bos taurus, UniProt P00735); assay: thrombin inhibition, dose response, biochemical, fluorescence polarization, uHTS hits (AID 602369); assay type: functional
[9] = system: Escherichia coli; assay: microbe, parasite or virus in culture
[10] = target: T3, Heat shock factor protein 1 (Mus musculus, UniProt P38532); assay: inhibition of MG132-induced HSE-luciferase signal, confirmation, cell-based, NIH3T3, luminescence, dose retest (AID 2382); assay type: functional;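 further: NIH3T3 fibroblasts with HSF1-driven luciferase reporter stressed by proteasome inhibitor MG132; luminescence from HSF1-driven luciferase expression after 8 hours of MG132 stress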
T3 sequence (P38532 whole entry): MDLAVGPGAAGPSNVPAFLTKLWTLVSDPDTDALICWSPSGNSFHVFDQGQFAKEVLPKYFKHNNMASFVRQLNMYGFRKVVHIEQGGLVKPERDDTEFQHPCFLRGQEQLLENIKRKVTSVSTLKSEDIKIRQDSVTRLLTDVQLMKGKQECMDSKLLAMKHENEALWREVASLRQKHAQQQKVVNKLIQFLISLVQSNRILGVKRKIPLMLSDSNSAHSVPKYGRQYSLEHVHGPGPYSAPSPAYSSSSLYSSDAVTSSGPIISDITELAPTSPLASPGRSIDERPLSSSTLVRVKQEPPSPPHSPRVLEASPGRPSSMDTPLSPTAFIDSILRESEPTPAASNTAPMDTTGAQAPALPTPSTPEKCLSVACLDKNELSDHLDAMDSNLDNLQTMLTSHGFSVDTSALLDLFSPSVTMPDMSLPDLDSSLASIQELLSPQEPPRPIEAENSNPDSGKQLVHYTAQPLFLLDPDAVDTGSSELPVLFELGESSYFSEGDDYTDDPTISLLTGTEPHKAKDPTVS

[11] = target: Intestinal-type alkaline phosphatase (Homo sapiens, UniProt P09923); assay: inhibition of human intestinal alkaline phosphatase – biochemical, dose response (AID 488876); assay type: functional
Intestinal-type alkaline phosphatase (Homo sapiens, UniProt P09923), sequence (P09923 whole entry): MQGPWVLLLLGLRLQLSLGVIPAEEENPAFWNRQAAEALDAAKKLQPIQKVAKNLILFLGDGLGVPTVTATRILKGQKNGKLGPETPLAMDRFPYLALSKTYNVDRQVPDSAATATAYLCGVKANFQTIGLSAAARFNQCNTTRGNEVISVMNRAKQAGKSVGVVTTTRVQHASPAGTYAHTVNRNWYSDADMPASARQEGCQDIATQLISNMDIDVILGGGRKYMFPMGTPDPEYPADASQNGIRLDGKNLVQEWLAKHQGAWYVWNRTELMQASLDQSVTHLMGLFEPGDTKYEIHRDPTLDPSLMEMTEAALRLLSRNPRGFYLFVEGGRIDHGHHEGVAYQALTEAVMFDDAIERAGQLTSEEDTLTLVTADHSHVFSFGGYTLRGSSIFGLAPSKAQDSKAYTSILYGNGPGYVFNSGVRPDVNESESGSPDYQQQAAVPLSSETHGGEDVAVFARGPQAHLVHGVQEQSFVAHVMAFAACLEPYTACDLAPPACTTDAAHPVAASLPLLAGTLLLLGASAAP

[12] = target: Intestinal-type alkaline phosphatase (Mus musculus, UniProt P24822); assay: PubChem AID 488785; assay type: functional
[13] = target: T4, Alkaline phosphatase, tissue-nonspecific isozyme (Homo sapiens, UniProt P05186); assay: TNAP enzyme inhibition by screening hits, dose response, selectivity assay for mouse IAP inhibitor project, biochemical, human TNAP, uHTS hits (AID 488906); assay type: functional
T4 sequence (P05186 whole entry): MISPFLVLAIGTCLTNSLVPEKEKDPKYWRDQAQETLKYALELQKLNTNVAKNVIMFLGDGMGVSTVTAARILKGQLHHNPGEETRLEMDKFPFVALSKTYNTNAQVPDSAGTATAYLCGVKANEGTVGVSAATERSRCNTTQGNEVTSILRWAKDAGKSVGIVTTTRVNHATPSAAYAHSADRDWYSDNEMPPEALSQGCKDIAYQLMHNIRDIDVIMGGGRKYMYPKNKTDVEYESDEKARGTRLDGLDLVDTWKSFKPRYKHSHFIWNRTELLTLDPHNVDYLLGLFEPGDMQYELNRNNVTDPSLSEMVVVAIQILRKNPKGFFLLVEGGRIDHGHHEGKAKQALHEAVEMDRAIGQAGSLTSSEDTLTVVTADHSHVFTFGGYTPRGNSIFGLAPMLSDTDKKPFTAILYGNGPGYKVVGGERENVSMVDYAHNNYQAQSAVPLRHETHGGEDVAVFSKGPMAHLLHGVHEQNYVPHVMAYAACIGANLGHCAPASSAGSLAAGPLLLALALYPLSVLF

[14] = system: HeLa; assay: HeLa cell cytotoxicity, dose response, cytotoxicity control for MITF activator project, CellTiter-Glo luminescence, cherry-pick samples (AID 540259); assay type: functional, cell-based; details: Homo sapiens
[15] = HEp-2 cell cytotoxicity, dose response, cytotoxicity control for RSV inhibitor project, HTS (AID 2410); assay type: functional; details: human respiratory syncytial virus
[16] = cytotoxicity in MIN6 insulinoma cells, dose response, cytotoxicity control, cell-based, mouse insulinoma (AID 2122); assay type: functional;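 further: confirmatory high-throughput counterscreen run to flag cytotoxic compounds; mouse MIN-6 beta cells carrying an insulin promoter eGFP reporter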
[17] = cytotoxicity toward NIH3T3 fibroblasts, dose response, counter-screen, cell-based, ATP luminescence, mouse fibroblasts (AID 2010); assay type: functional;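 further: cells exposed to compound for about 90 hours before reading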
[18] = NIH-3T3 fibroblast cytotoxicity, dose response, cytotoxicity control, cell-based, fluorescence, Alamar Blue, secondary assay (AID 2327); assay type: functional;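 further: NIH-3T3 mouse fibroblasts cultured with fluconazole at 8 µg/mL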
[19] = insulin promoter down-regulators in MIN6 cells, imaging, high-content screening, mouse beta cells (AID 1628); assay type: functional
[20] = inhibitors of intracellular T. cruzi replication, confirmation, NIH3T3 host cells, beta-gal luminescence (AID 2044); assay type: functional, cell-based;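 further: intracellular parasites grown in NIH/3T3 mouse fibroblasts as host cells; luminescent beta-galactosidase reporter signal from transgenic T. cruzi replicating inside host cells; inhibitors lower the luminescence signal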
[21] = C. albicans growth with fluconazole, confirmation, fluorescence, retest (AID 2467); assay type: functional, cell-based
[22] = system: Escherichia coli; assay: microbe, parasite or virus in culture; remark: listed apart in the source

Structure (SMILES): O=C(c1ccc(Cl)cc1)C1CCCN(Cc2ccc3c(c2)OCCO3)C1 (stereo unspecified)
AC50 [9]: 190 µM (active)
EC50 [10]: > 195 µM (not active)

Structure (SMILES): N=C(NOC(=O)c1ccc2c(c1)OCO2)c1ccc(Cl)cc1
AC50 [14]: 69 µM (active)

Structure (SMILES): CCN(CC)c1nc(-c2ccccn2)nc(-c2ccccc2)c1C#N
IC50 [16]: 3.09 µM (active)
EC50 [17]: 6.71 µM (active)
EC50 [18]: > 160 µM (inconclusive)
IC50 [19]: 2.71 µM (active)
EC50 [20]: 1.57 µM (active)
EC50 [21]: > 38 µM (not active)

Structure (SMILES): O=C(CS(=O)(=O)c1ccc(Cl)c(Cl)c1)Nc1ccccc1Cl
AC50 [9]: 300 µM (active)
AC50 [22]: 47.2 µM (active)

Further lines, with some results ahead:

EC50 [1]: 19.6 µM (not active)
EC50 [2]: > 300 µM (not active)
EC50 [3]: > 79.4 µM (inactive)
EC50 [4]: > 300 µM (not active)
EC50 [5]: > 79.4 µM (not active)
Structure (SMILES): COc1cccc(C2C(C(=O)c3cc4cccc(OC)c4o3)=C(O)C(=O)N2c2cc(C)on2)c1OC (stereo unspecified)

IC50 [6]: > 100 µM (inactive)
IC50 [7]: 32 µM (active)
IC50 [8]: 60.8 µM (active)
Structure (SMILES): O=c1[nH]c(CSc2ncnc3sccc23)nc2cc(C(F)(F)F)ccc12

IC50 [11]: > 100 µM (inactive)
IC50 [12]: 6.07 µM (active)
IC50 [13]: 22.2 µM (active)
Structure (SMILES): COc1cc(C(=O)NN2C(=O)/C(=C3\C(=O)Nc4ccccc43)SC2=S)ccc1O

EC50 [1]: 11.6 µM (not active)
EC50 [3]: 15.8 µM (inactive)
EC50 [5]: 48.1 µM (not active)
Structure (SMILES): O=c1cc(CSc2nc3nncc-3c(O)n2-c2ccc(Br)cc2)nc2ccc(Br)cn12
CC50 [15]: 22.8 µM (active)
